{"source": "patent US20160051514A1", "about": "“METHODS FOR TREATMENT OF CARDIOMYOPATHY” (THE BRIGHAM AND WOMEN'S HOSPITAL, INC., priority 2013, published 2016)", "key": {"[1]": {"test_system": "neonatal rat ventricular myocytes expressing 2057del2 plakoglobin", "experiment": "Immunofluorescence of intercalated disk proteins in neonatal rat ventricular myocytes", "format": "cell-based", "details": "cells expressing 2057del2 plakoglobin; 5 μM, 24 hr", "procedure": "Neonatal rat ventricular myocyte isolation and culture, stretch protocols: Primary cardiac myocyte cultures were prepared from ventricles of 1-day-old Wistar rat pups (Charles River) as previously described.^9 Cells were plated on collagen-coated plastic chamber slides at a density of […] cells/cm^2 and grown for 4 days prior to experimentation. In selected experiments, monolayers grown on collagen--coated silicone membranes were subjected to linear pulsatile stretch using a custom-designed apparatus as described in previous studies.'° Cells were stretched to 110% of resting length at a. frequency of 3 Hz for 1-4 hr in serum-free medium. In other experiments cultures were incubated with reagents including pifitlirin A (5 μM, 1 hr) and SB216763 (5 μM, 24 hr) prior to experimentation. All protocols were approved by the Institutional Animal Care and Use Committee (IACUC).\nViral transfection: A recombinant adenoviral construct expressing 2057del2-plakoglobin was created with the ViraPower Adenoviral Expression system (Invitrogen) using the pAd/CMV/V5-DEST vector through LR clonase-mediated recombination. The V5-tag was used to identify the mutant protein and distinguish it from wildtype plakoglobin. Two days post-plating, monolayers were exposed to viral solution (1:130 dilution in serum-free media, 37° C.) for 1 hr after which viral solution was replaced with complete medium in the presence or absence of reagents.\nImmunofluoresence staining and microscopy in cultured cells: Cultures were rinsed in serum-free medium and fixed in 4% paraformaldehyde at room temperature for 5 min or in acetone at −20° C. for 10 min. Fixed cells were immunostained with mouse monoclonal anti-plakoglobin (Sigma), anti-N-cadhcrin (Sigma), anti-Cx43 (Millipore), anti-desmopla.kin (Fitzgerald), anti-SAP97 (Santa Cruz Biotechnology) antibodies and anti-Nav1.5 (kindly provided by Dr. Hugues Abriel, University of Bern, Switzerland) antibodies. Specific immunoreactive signal was detected by laser scanning confocal microscopy as previously described.”\nNeonatal rat ventricular myocyte isolation, culture, stretch protocols: Primary cardiac myocyte cultures were prepared from ventricles of 1-day-old Wistar rat pups (Charles River) as previously described (36). Cells were plated on collagen-coated plastic chamber slides at a density of 2.4×10^5 cells/cm2 and grown for 4 days prior to experimentation. In selected experiments, monolayers grown on collagen-coated silicone membranes were subjected to linear pulsatile stretch using a custom-designed apparatus as described in previous studies (35). Cells were stretched to 110% of resting length at a frequency of 3 Hz for 1-4 hr in serum-free medium. In other experiments cultures were incubated with reagents including pifithrin A (5 μM, 1 hr) and SB216763 (0.1-10 μM for 12 or 24 hr) prior to experimentation. Vehicle controls (DMSO) were included in all experiments.\nViral transfection: A recombinant adenoviral construct expressing 2057del2 plakoglobin was created with the ViraPower Adenoviral Expression™ system (Invitrogen) using the pAd/CMV/V5-DEST vector through LR clonase-mediated recombination. The V5-tag was used to identify the mutant protein and distinguish it from wildtype plakoglobin. Two days post-plating, monolayers were exposed to viral solution (1:130 dilution in serum-free media, 37° C.) for 1 hr after which viral solution was replaced with complete medium in the presence or absence of reagents. Immunofluorescence staining and microscopy in cultured cells: Cultures were rinsed in serum-free medium and fixed in 4% paraformaldehyde at 25° C. for 5 min or in acetone at −20° C. for 10 min. Fixed cells were immunostained with mouse monoclonal anti-plakoglobin (Sigma), anti-N-cadherin (Sigma), anti-Cx43 (Millipore), anti-desmoplakin (Fitzgerald), anti-SAP97 (Santa Cruz Biotechnology) antibodies and anti-Nav1.5 antibodies (rabbit polyclonal)."}, "[2]": {"test_system": "2057del2 plakoglobin zebrafish", "experiment": "Survival and cardiac physiology in the zebrafish model of ACM", "format": "in vivo", "details": "data not shown", "procedure": "In-house software (implemented in MATLAB™) was used to determine heart rate, while measurements of ventricular long and short axes in both diastole and systole were obtained using ImageJ™. Cardiac output was measured as diastolic minus systolic ventricular volume multiplied by heart rate, as outlined by Shin et al (30). Fractional shortening was calculated as end-diastolic diameter minus end-systolic diameter divided by end-diastolic diameter.\nSurvival studies: Embryos were kept in petri dishes until 7 dpf and then transferred to nursery tanks with larval food. Observations for phenotype and survival were recorded for several weeks. Data are presented as a Kaplan-Meier curve using Graphpad™ software."}, "[3]": {"test_system": "neonatal rat ventricular myocytes expressing 2057del2 plakoglobin", "experiment": "TUNEL assay of myocyte apoptosis", "format": "cell-based", "source_text": "(§1) TUNEL assay: Apoptotic cells in cultures were detected by terminal deoxynucleotidyl transferase-mediated biotinylated UTP nick end-labeling (TUNEL) assay using the ApopTag™ Fluorescein Direct in Situ Apoptosis Detection Kit (Millipore) as previously described.^9 Nuclei were stained with DAPI, and TUNEL-positive and total nuclei were counted under a laser scanning confocal microscope in 5 fields per chamber.\nas §1, with “ApopTag” for “ApopTag™”, “KitTM” for “Kit”, “according to the manufacturer's instructions.” for “as previously described.^9”, “DAPI;” for “DAPI, and”, “chamber or silicone membrane in stretch experiments.” for “chamber.”"}}, "note": "“Also recorded” adds a separate entry of the source."}
{"smiles": "Cc1c[nH]c(-c2cnc(NCCNc3ccc(C#N)cn3)nc2-c2ccc(Cl)cc2Cl)n1", "note": "[CHIR99021, reference compound]", "values": [{"measurement": "Subcellular distribution of plakoglobin immunoreactive signal (junctional vs intracellular/nuclear)", "setting": "[1]", "value": "intensified plakoglobin signal in nuclei"}, {"measurement": "Effectiveness of other GSK-3β inhibitors in attenuating the mutant phenotype compared with SB216763", "setting": "[2]", "value": "do not exhibit the therapeutic benefits; also recorded: none of which were as effective"}]}
{"smiles": "O=C(Nc1ccc([N+](=O)[O-])cc1Cl)c1cc(Cl)ccc1O", "note": "[niclosamide, reference compound]", "values": [{"measurement": "Subcellular distribution of plakoglobin immunoreactive signal (junctional vs intracellular/nuclear)", "setting": "[1]", "value": "increased nuclear localization of plakoglobin"}]}
{"smiles": "[Cl-].[Li+]", "note": "[LiC1, reference compound]", "values": [{"measurement": "Effectiveness of other GSK-3β inhibitors in attenuating the mutant phenotype compared with SB216763", "setting": "[2]", "value": "none of which were as effective"}]}
{"smiles": "Cn1cc(C2=C(c3coc4ccccc34)C(=O)NC2=O)c2cc(Br)ccc21", "note": "[BIP 135, reference compound]", "values": [{"measurement": "Effectiveness of other GSK-3β inhibitors in attenuating the mutant phenotype compared with SB216763", "setting": "[2]", "value": "none of which were as effective"}]}
{"smiles": "Cc1ccc(C(=O)Cn2c3c(sc2=N)CCCC3)cc1", "note": "[pifithrin-A, reference compound]", "values": [{"measurement": "Apoptosis in transfected myocytes exposed to stretch", "setting": "[3]; 4 hr of stretch, vs stretch without inhibitor", "value": "significantly reduced apoptosis"}, {"measurement": "Apoptosis in cells expressing 2057del2 plakoglobin", "setting": "[3]; pifithrin-A 5 μM", "value": "could be prevented"}]}
{"smiles": "O=C1Nc2cc(Br)ccc2/C1=C1/Nc2ccccc2/C1=N\\O", "note": "[BIO, 6-bromoindirubin-3′-oxime, reference compound]", "values": [{"measurement": "Effectiveness of other GSK-3β inhibitors in attenuating the mutant phenotype compared with SB216763", "setting": "[2]", "value": "do not exhibit the therapeutic benefits; also recorded: none of which were as effective"}]}
